According to patent US8383637B2, “2-amino-quinazoline derivatives useful as inhibitors of β-secretase (BACE)” (Jansssen Pharmaceutica N.V., priority 2004, dated 2013):

Experiments:
β-secretase(BACE) [1] = target: T1, β-secretase(BACE) (Homo sapiens, UniProt P56817); experiment: BACE FS1% Inhibition Assay; format: biochemical; conditions: FS1 substrate; for inhibition at 0.3 µM: 0.3 μM test compound; for inhibition at 1 µM: 1 μM test compound; for inhibition at 3 µM: 3 μM test compound
T1 construct: purchased Panvera
Method in brief: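 Human BACE (4 μg/mL working solution) preincubated 20 min at room temperature with compound, then FS1 substrate (300 μg/mL working solution) added and incubated 1 h at room temperature. Percent inhibition calculated at each compound concentration against blank and vehicle controls.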

β-secretase(BACE) [2] = target: T1, β-secretase(BACE); experiment: BACE Assay-2 (FS1 substrate, IC50 and Ki); format: biochemical; conditions: procedure of Example 159, FS1 substrate; for Ki: read-out: Ki μM (159)
β-secretase(BACE) [3] = target: T1, β-secretase(BACE); experiment: BACE % Inhibition Assay ((Aedens)-[…]-(Dabcyl K-amide) substrate); format: biochemical; conditions: % error ±10%; for inhibition at 3 µM: 3 μM test compound; for inhibition at 3 µM / inhibition at 10 µM: read-out: % Inhibition; for inhibition at 10 µM: 10 μM test compound; for inhibition at 0.3 µM: 0.3 μM test compound; for inhibition at 1 µM: 1 μM test compound
Description: The substrate stock solution was prepared in DMSO as a 10 mg/mL solution. The substrate working solution was prepared by diluting the 10 mg/mL stock solution with substrate assay buffer to a final concentration of 300 μg/mL. The β-secretase (BACE) working solution was prepared by diluting a 0.83 mg/mL BACE stock solution with enzyme assay buffer to a final concentration of 4 μg/mL.
Test compounds were dissolved in DMSO to 10 mM.
The screening procedure for this assay was as follows: 15 μL of BACE working solution was pipetted into each well of a 96-well plate. To each well was then pipetted 2 μL of test compound at the selected concentration. Test compound and BACE were then mixed with a pipettor and incubated for 20 min at room temperature. To each well was then added 10 μL of the substrate working solution. The plates were then incubated for 1 hour at room temperature.
The procedure for the blank was as follows. 15 μL of assay buffer was pipetted into each well to be used as a blank control. To each well was then added 2 μL of vehicle and 10 μL of substrate working solution. The plates were then incubated for 1 hour at room temperature.
The procedure for the positive control was as follows: 15 μl of BACE working solution was pipetted into each well to be used as a positive control. To each well was then pipetted 2 μL of vehicle. Vehicle and BACE were then mixed with a pipettor and incubated for 20 min at room temperature. To each well was then added 10 μL of the substrate working solution. The plates were then incubated for 1 hour at room temperature.
For test compounds, % inhibition was determined at each concentration as follows: […]

β-secretase(BACE) [4] = target: T1, β-secretase(BACE); experiment: BACE Assay-1 (MCA-substrate, IC50); format: biochemical; conditions: procedure of Example 158; read-out: IC50 μM (158)
Method in brief: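 Human BACE (work solution 10 μg/mL) with MCA-peptide substrate (stock 2.0 mg/mL) in 0.05 M citrate buffer, pH 5.0, with PEG8000. Fluorescence read at T0 and T60; compounds tested at multiple concentrations and IC50 calculated from these readings.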

human BACE-1 = human BACE-1 (Homo sapiens, UniProt P56817); experiment: BACE Assay (CEREP); format: biochemical; conditions: recombinant enzyme, 60 min at 37° C., pH 4.5; for inhibition at 0.3 µM: test compound 0.3 μM
Description: The test compound, reference compound or water (control) were added to a buffer containing 0.09 M sodium acetate (pH 4.5) and 0.25 μg BACE-1. Compound interference with the fluorimetric detection method due to autofluorescence was then checked by measurements at the wavelengths defined to evaluate the enzyme activity. […] For control basal measurement, the substrate was omitted from the reaction mixture. […] The standard inhibitory reference compound was OM99-2, which was tested in each experiment at several concentrations to obtain an inhibition curve from which its IC50 value was calculated.

[5] = read-out: % Inhibition (FS) 0.3 μM
[6] = read-out: % Inhibition (FS) 1 μM
[7] = read-out: % Inhibition (FS) 3 μM

Sequence of human BACE-1 (P56817 46-501): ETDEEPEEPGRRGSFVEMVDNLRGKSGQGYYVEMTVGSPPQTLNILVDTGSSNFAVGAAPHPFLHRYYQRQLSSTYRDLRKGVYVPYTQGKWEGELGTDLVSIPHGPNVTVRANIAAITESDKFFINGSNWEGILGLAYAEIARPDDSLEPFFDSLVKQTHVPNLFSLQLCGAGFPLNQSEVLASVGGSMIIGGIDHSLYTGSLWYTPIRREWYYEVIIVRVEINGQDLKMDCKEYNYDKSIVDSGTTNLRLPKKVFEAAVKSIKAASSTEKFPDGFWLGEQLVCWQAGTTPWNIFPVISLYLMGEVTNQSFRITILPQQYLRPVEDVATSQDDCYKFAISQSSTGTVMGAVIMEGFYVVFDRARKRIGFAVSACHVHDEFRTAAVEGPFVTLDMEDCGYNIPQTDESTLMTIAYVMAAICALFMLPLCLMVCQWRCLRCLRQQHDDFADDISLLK
T1 sequence (P56817 46-501): as above

Structure (SMILES) | Ki (β-secretase(BACE) [2]) | inhibition at 3 µM (β-secretase(BACE) [3]) | IC50 (β-secretase(BACE) [4]) | IC50 (human BACE-1) | inhibition at 0.3 µM (β-secretase(BACE) [3]) | inhibition at 1 µM (β-secretase(BACE) [3]) | inhibition at 0.3 µM (human BACE-1) | other results
CN(C(=O)CCN1Cc2cc(C(=O)c3ccccc3)ccc2N=C1N)C1CCCCC1 | – | – | – | – | – | – | – | melting point: 198.1 °C
NC1=Nc2ccc(Oc3ccccc3)cc2CN1Cc1cccc(C(=O)N(C2CCCCC2)C2CCCCC2)c1 [Compound 98] | 1.1 µM | 76% | 0.2 µM | – | – | – | – | inhibition at 0.3 µM (β-secretase(BACE) [1]; [5]): 49%; inhibition at 1 µM (β-secretase(BACE) [1]; [6]): 93%; inhibition at 3 µM (β-secretase(BACE) [1]; [7]): 114%; IC50 (β-secretase(BACE) [2]): 2.3 µM; inhibition at 10 µM (β-secretase(BACE) [3]): 99%
CN(C(=O)c1cccc(CN2Cc3cc(Oc4cccc(NS(=O)(=O)c5ccccc5)c4)ccc3N=C2N)c1)C1CCCCC1 [Compound 110] | 0.4 µM | 75% | 0.053 µM | – | – | – | – | inhibition at 0.3 µM (β-secretase(BACE) [1]; [5]): < 30%; inhibition at 1 µM (β-secretase(BACE) [1]; [6]): 30%; inhibition at 3 µM (β-secretase(BACE) [1]; [7]): 84%; IC50 (β-secretase(BACE) [2]): 1.24 µM; inhibition at 10 µM (β-secretase(BACE) [3]): 96%
NC1=Nc2ccc(Oc3ccccc3)cc2CN1CCNC(=O)c1ccccc1 [Compound 154] | 0.61 µM | – | – | > 1000 nM | – | – | – | inhibition at 3 µM (β-secretase(BACE) [1]; [7]): 56%; inhibition at 10 µM (β-secretase(BACE) [1]; 10 μM test compound, read-out: % Inhibition (FS) 10 μM): 79%
CCCC(CNC(=O)OC(C)(C)C)N1Cc2cc(Oc3ccccc3)ccc2N=C1N (stereo not drawn) [Compound 318] | 0.19 µM | 103% | 0.25 µM | – | 32% | 70% | – | –
NC1=Nc2ccc(Oc3ccccc3)cc2CN1C(CNC(=O)c1ccccc1)C1CCCCC1 (stereo not drawn) [Compound 319] | 0.074 µM | 120% | 0.053 µM | – | 61% | 95% | – | –
NC1=Nc2ccc(Oc3ccccc3)cc2CN1C(CNC(=O)C1CCCCC1)c1ccccc1 (stereo not drawn) [Compound 342] | 0.19 µM | 119% | 0.082 µM | – | 50% | 93% | – | –
CCCC(CNC(=O)C1CCCCC1)N1Cc2cc(Oc3ccccc3)ccc2N=C1N (stereo not drawn) [Compound 343] | 0.065 µM | 118% | 0.041 µM | – | 81% | 101% | – | –
NC1=Nc2ccc(Oc3ccccc3)cc2CN1C(CCNC(=O)C1CCCCC1)C1CCCCC1 (stereo not drawn) [Compound 391] | 0.1 µM | 115% | 0.054 µM | – | 35% | 93% | – | –
NC1=Nc2ccc(Oc3ccccc3)cc2CN1C(CCNC(=O)C1CCCC1)C1CCCCC1 (stereo not drawn) [Compound 392] | 0.16 µM | 120% | 0.093 µM | – | 75% | 116% | – | –
NC1=Nc2ccc(Oc3ccccc3)cc2CN1C(CCNC(=O)CC1CCCC1)C1CCCCC1 (stereo not drawn) [Compound 393] | 0.29 µM | 113% | 0.15 µM | – | < 30% | 52% | – | –
NC1=Nc2ccc(Oc3ccccc3)cc2CN1[C@@H](CCC(=O)N(Cc1ncc[nH]1)C1CCCCC1)C1CCCCC1 [Compound 788] | – | – | – | 160 nM | – | – | 97% | inhibition at 0.3 µM (β-secretase(BACE) [1]; read-out: % Inhibition (FS)): 110%; inhibition at 1 µM (β-secretase(BACE) [1]; read-out: % Inhibition (FS)): 114%; inhibition at 3 µM (β-secretase(BACE) [1]; read-out: % Inhibition (FS)): 118%
NC1=Nc2ccc(Oc3ccccc3)cc2CN1[C@@H](CCC(=O)N(Cc1ccncc1)C1CCCCC1)C1CCCCC1 [Compound 789] | – | – | – | 78 nM | – | – | 94% | inhibition at 0.3 µM (β-secretase(BACE) [1]; read-out: % Inhibition (FS)): 80%; inhibition at 1 µM (β-secretase(BACE) [1]; read-out: % Inhibition (FS)): 99%; inhibition at 3 µM (β-secretase(BACE) [1]; read-out: % Inhibition (FS)): 106%
NC1=Nc2ccc(Oc3ccccc3)cc2CN1[C@@H](CCC(=O)N(Cc1nc[nH]n1)C1CCCCC1)C1CCCCC1 [Compound 790] | – | – | – | 93 nM | – | – | 98% | –
NC1=Nc2ccc(Oc3ccccc3)cc2CN1[C@@H](CCC(=O)N1C2CCCCC2C[C@H]1C(=O)O)C1CCCCC1 (stereo partly drawn) [Compound 795, 1-[4-(2-Amino-6-phenoxy-4H-quinazolin-3-yl)-4S-cyclohexyl-butyryl]-octahydro-indole-2S-carboxylic acid] | – | – | – | 150 nM | – | – | 98% | –
NC1=Nc2ccc(Oc3ccccc3)cc2CN1[C@@H](CCC(=O)N(Cc1cnc[nH]1)C1CCCCC1)C1CCCCC1 [Compound 796] | – | – | – | 190 nM | – | – | – | –
CC(=O)OCC1OC(OCCN(C(=O)CCC(C2CCCCC2)N2Cc3cc(Oc4ccccc4)ccc3N=C2N)C2CCCCC2)C(OC(C)=O)C(OC(C)=O)C1OC(C)=O (stereo not drawn) [Compound 797] | – | – | – | 120 nM | – | – | 95% | –
NC1=Nc2ccc(Oc3ccccc3)cc2CN1[C@@H](CCC(=O)N(CCO[C@@H]1O[C@H](CO)[C@@H](O)[C@H](O)[C@H]1O)C1CCCCC1)C1CCCCC1 [Compound 798, 4-(2-Amino-6-phenoxy-4H-quinazolin-3-yl)-4S,N-dicyclohexyl-N-[2R-(3R,4S,5S-trihydroxy-6R-hydroxymethyl-tetrahydro-pyran-2-yloxy)-ethyl]-butyramide] | – | – | – | 74 nM | – | – | 95% | –
